Measured values reported in patent US10858339B2, “Aryl cyclopropyl-amino-isoquinolinyl amide compounds” (priority 2017, dated 2020).

Columns and labels:
[1] = Rabbit IOP after intracameral injection; assay type: in vivo; conditions: intracameral injection of a formulation, FIG. 1
Description: Examples of such assays are described in the following reference, incorporated herein by reference: C. Liljebris, G. Selen, B. Resul, J. Sternschantz, and U. Hacksell, “Derivatives of 17-phenyl-18,19,20-trinorprostaglandin F2α Isopropyl Ester: Potential Anti-glaucoma Agents”, Journal of Medicinal Chemistry 1995, 38 (2): 289-304.

[2] = system: Porcine Trabecular Meshwork cells (PTM); test: PTM-HTM assay, actin fiber length in PTM cells; assay type: cell-based; conditions: Sus scrofa; Table 17; porcine trabecular meshwork cells; read-out: PTM
Experimental: Porcine Trabecular Meshwork cells (PTM) were isolated from freshly obtained enucleated porcine eyes. Immortalized Human Trabecular Meshwork cells (TM-1) were obtained through a kind gift from Donna Peters in the Department of Ophthalmology and Visual Sciences at the University of Wisconsin. Cells were plated onto fibronectin coated glass-bottom 96-well plates and allowed to attach overnight. Media was removed and replaced with test compound in media with 1% fetal bovine serum and incubated for various times. After incubation, cells were formaldehyde fixed, triton solubilized, and stained. PTM cells were stained with Alexa Fluor®488 phalloidin (F-actin) and Hoechst 33342 (nuclei). TM-1 cells were stained with anti-paxillin followed by Alexa Fluor®488 goat-anti-mouse IgG (focal adhesions) and Hoechst 33342 (nuclei). All staining reagents were obtained through Invitrogen. Images were collected on an INCell 2200 imager with a 20× objective. The actin fiber length and total area of focal adhesions were analyzed using custom algorithms developed in the INCell Developer Toolbox, v1.9.3. Data collected were converted to percent of control (untreated cells). Curves were fit to data in GraphPad Prizm using sigmoidal dose-response and constraining top and bottom to 100% and 0%, respectively.

IKKb = biological target: T1, IKKb (Homo sapiens, UniProt O14920); test: IKKb kinase activity; assay type: biochemical; conditions: Table 17
T1 sequence (O14920 1-756): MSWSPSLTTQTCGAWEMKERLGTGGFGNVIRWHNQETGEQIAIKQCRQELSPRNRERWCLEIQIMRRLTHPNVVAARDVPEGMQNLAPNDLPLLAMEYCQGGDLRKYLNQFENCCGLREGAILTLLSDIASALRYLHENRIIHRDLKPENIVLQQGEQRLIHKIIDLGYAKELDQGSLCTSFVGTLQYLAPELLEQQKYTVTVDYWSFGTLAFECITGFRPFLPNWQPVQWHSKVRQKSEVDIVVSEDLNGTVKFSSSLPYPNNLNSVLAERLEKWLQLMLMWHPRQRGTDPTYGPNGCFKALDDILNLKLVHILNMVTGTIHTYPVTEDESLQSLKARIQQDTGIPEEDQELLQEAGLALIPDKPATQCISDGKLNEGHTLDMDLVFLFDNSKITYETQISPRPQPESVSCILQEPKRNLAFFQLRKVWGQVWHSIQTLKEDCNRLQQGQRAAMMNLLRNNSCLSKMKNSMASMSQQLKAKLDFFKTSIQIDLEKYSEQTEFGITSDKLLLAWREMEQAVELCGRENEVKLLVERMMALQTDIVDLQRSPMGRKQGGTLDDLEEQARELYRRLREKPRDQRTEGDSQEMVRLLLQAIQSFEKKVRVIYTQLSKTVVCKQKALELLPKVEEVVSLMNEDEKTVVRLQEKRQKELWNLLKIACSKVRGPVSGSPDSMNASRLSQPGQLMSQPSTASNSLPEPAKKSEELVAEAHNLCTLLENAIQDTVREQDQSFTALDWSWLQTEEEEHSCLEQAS

JAK3 = biological target: T2, JAK3 (Homo sapiens, UniProt P52333); test: JAK kinase assay, JAK3 enzyme; assay type: biochemical; conditions: Table 17; read-out: JAK3
T2 sequence (P52333 1-1124): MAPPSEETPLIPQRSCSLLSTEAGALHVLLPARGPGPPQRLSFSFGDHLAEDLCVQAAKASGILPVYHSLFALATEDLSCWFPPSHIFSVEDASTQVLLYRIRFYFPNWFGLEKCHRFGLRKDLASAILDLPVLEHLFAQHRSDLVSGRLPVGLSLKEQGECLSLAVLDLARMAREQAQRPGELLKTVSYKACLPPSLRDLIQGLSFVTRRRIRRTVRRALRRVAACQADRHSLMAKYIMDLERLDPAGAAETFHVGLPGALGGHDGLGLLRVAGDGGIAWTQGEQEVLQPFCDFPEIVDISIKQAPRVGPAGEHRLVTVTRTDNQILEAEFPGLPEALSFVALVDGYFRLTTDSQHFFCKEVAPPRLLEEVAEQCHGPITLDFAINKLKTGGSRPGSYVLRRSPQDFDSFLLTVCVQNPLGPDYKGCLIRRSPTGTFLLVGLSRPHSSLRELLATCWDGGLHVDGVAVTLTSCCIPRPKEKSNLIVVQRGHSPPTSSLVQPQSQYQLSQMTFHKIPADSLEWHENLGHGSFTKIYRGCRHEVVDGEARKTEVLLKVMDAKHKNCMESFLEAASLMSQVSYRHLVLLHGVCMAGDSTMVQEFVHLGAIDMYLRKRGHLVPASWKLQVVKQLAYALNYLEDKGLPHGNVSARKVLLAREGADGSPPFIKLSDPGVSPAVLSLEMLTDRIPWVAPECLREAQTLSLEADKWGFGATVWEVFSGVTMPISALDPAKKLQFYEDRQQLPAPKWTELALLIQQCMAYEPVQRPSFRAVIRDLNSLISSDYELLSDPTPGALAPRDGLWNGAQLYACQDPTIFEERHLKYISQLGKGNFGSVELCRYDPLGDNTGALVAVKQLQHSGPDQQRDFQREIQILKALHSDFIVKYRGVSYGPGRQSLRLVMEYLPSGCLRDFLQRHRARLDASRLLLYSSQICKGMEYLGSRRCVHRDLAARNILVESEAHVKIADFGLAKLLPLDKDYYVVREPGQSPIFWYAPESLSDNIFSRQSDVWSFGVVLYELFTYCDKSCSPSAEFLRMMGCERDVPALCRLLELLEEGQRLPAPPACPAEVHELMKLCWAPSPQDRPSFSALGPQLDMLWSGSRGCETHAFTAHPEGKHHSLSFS

ROCK2 = ROCK2 (Homo sapiens, UniProt O75116); test: biochemical; conditions: ROCK2, Table 17
ROCK1 = ROCK1 (Homo sapiens, UniProt Q13464); test: ROCK kinase inhibition assay, ROCK1 enzyme; assay type: biochemical; conditions: ROCK1, Table 17;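 further: kinase reaction with 0.5 µM final ATP, 75 min at room temperature, remaining ATP read by luminescence, percent of DMSO-only control minus background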
ROCK1, sequence (Q13464 whole entry, species assumed): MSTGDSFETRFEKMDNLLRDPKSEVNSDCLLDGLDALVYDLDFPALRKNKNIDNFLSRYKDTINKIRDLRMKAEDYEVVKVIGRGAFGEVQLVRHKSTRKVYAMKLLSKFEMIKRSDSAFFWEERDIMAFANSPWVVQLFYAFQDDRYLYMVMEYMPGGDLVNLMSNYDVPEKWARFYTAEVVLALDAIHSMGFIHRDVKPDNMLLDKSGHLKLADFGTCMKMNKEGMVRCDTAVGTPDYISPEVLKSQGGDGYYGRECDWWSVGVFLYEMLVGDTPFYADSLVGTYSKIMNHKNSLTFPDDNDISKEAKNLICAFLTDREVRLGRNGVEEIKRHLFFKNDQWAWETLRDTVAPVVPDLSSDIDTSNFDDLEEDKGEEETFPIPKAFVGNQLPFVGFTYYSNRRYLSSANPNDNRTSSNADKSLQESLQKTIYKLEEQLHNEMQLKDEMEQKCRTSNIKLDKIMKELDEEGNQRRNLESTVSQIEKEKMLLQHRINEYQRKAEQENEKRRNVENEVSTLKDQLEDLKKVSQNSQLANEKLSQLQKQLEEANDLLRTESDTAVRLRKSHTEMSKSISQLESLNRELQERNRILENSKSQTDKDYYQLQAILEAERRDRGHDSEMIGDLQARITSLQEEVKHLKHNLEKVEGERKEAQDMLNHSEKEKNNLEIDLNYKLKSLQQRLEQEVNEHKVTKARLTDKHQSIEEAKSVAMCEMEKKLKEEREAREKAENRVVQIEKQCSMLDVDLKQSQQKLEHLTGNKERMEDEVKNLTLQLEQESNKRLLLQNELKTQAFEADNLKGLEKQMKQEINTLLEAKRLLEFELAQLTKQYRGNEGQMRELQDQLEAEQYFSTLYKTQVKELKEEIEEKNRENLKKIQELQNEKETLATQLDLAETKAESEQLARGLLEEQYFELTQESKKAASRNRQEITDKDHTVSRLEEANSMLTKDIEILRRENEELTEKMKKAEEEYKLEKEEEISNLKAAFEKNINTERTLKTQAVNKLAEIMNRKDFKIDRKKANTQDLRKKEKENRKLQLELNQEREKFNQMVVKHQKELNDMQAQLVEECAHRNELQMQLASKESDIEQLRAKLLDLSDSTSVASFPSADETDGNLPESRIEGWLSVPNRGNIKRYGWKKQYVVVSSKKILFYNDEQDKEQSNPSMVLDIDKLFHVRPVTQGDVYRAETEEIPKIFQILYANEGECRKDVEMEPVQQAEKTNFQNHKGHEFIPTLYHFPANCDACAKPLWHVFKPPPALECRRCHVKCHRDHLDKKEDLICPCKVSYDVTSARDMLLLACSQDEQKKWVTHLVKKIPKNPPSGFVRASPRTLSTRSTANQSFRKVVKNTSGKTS

ROCK2, sequence (O75116 whole entry, species assumed): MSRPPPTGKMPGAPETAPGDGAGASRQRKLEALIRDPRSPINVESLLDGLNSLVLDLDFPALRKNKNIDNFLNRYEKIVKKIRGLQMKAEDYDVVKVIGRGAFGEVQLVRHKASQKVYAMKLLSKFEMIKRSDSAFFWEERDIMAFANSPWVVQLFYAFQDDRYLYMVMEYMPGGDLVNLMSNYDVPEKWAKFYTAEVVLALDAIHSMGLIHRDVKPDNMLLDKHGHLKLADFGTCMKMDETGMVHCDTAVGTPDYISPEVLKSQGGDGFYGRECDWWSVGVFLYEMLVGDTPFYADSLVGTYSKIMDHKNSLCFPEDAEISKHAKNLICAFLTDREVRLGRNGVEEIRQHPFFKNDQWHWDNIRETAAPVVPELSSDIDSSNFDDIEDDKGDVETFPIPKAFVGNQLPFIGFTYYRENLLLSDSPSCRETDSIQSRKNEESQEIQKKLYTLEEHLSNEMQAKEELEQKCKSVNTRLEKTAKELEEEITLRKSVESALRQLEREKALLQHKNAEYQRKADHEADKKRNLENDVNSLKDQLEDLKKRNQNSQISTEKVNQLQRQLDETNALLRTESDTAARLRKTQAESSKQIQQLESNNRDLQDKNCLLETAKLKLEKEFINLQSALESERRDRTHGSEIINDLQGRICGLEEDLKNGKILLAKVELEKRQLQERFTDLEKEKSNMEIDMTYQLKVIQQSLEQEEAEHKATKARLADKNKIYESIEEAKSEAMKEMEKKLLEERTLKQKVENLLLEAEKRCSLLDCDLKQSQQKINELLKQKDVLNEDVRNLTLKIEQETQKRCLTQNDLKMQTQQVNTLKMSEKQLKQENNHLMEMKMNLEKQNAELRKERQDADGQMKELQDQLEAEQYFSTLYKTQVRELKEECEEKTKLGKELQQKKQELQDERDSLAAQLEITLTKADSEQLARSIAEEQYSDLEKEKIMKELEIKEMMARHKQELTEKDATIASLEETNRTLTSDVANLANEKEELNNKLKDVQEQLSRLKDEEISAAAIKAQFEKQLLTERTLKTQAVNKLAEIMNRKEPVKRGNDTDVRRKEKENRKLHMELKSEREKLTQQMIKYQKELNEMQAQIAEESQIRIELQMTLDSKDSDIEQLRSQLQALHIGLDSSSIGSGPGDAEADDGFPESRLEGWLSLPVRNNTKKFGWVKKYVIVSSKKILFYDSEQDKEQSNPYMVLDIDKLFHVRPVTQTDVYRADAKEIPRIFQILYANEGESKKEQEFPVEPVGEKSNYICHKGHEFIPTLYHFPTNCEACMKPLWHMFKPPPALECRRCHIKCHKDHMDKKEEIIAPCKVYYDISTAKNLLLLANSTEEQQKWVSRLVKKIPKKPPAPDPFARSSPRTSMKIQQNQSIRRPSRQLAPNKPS

For “(1R,2R)—N-(fluoroisoquinolin-6-yl)-2-(4-(pyridinylmethyl)phenyl)cyclopropane-1-carboxamide”, the “changes (reductions) in rabbit IOP” value [1] was “reductions”.

O=C(Nc1ccc2cncc(Cl)c2c1)C1CC1c1ccc(S(=O)(=O)Nc2ccccn2)cc1 (racemic) [rel-N-(4-chloroisoquinolin-6-yl)-2-(4-(N-(pyridin-2-yl)sulfamoyl)phenyl)cyclopropane-1-carboxamide] showed an IC50 [2] of 227 nM and a Ki (IKKb) of 9 nM.

With O=C(Nc1ccc2cnccc2c1F)[C@@H]1CC1c1ccc(S(=O)(=O)Nc2ccccn2)cc1 (mixture of isomers) [N-(5-fluoroisoquinolin-6-yl)-2-(4-(N-(pyridin-2-yl)sulfamoyl)phenyl)cyclopropane-1-carboxamide] the IC50 [2] was 290 nM, the Ki (JAK3) was 130 nM and the Ki (ROCK2) was 4.9 nM. It also gave a Ki (IKKb) of 144 nM and a Ki (ROCK1) of 10.3 nM.
